Like-named read-outs stand apart in the source and are kept apart here.
How the values were obtained:
human T cells = experiment: One-way mixed lymphocyte reaction (MLR), human T cells, CFSE; type: cell-based; conditions: high dose (10 µM), 96 h
Protocol: (§1) Flow cytometry acquisition and compensation was performed on a LSR Fortessa (BD Biosciences, San Jose, CA, USA). Analysis of listmode data was performed using Winlist 8.0 (Verity Software House, Inc., Topsham, ME, USA). Briefly, the viable responder lymphocytes were hierarchically gated for single, low side scatter, viable cells with absent CD45 labeling. The percentage of proliferating cells was determined based on CFSE dye dilution compared to the CFSE labeling intensity from the non-proliferating MLR negative control sample. The full list of antibodies and reagents used in assays is available in Table S1.
(§2) Mixed lymphocyte reactions were performed in human (human vs. human, Figure 1E) and woodchucks (woodchuck vs. human, Figure 1F). 10 mL peripheral blood from healthy donors and 3 mL woodchuck peripheral blood isolated. Stimulator cells (human cells for both assays) were irradiated at 40 Gy in a Mark I Cesium-137 irradiator for 20 min. Following irradiation, cells were stained for CD45-APC (BD Biosciences, San Jose, CA, USA). Responder cells (non-irradiated human or woodchuck cells) were labeled with CFSE (Thermo Fisher Scientific, Eugene, OR, USA). Target and responder cells were placed in a round bottom 96 well polypropylene plate at a 2:1 ratio in the presence of 0–10 µM sorafenib and incubated at 37 °C for 96 h. […]

woodchuck T cells = experiment: One-way mixed lymphocyte reaction (MLR), woodchuck T cells, CFSE; type: cell-based; conditions: woodchuck vs. human MLR, 0–10 µM, dose responsive, 96 h
Protocol: as §1, §2

[1] = Plasma pharmacokinetics of oral sorafenib in woodchucks (LC-MS/MS, noncompartmental analysis); type: in vivo, woodchuck (Marmota monax); conditions: for AUC / Cmax / Tmax: plasma, po; for AUC / Cmax / Tmax / Cmax/D, Geo Mean (%CV): woodchuck plasma; for Cmax: read-out: Cmax, Geo Mean (%CV); for Tmax: read-out: Tmax, Geo Mean (%CV)
Protocol: Woodchuck plasma study samples were analyzed for sorafenib with an LC-MS/MS assay using authentic standards of sorafenib and the internal standard (IS), d3-sorafenib, both obtained from Toronto Research Chemicals (Toronto, ON, Canada). Study samples were quantitated using calibration and quality control (QC) samples prepared by spiking sorafenib into sodium heparinized human plasma (Bioreclamation, LLC, Westbury, NY, USA). The woodchuck plasma study samples were extracted using a Quadra 4 SPE Automated Liquid Handling System (Tomtec Inc., Hamden, CT, USA) by mixing a 50 µL aliquot of a calibrator, QC, plasma blank, or study sample with 500 µL of ice cold acetonitrile containing the IS for the LC-MS/MS. LC-MS/MS analysis was performed using a Finnigan Surveyor MS Pump Plus and Thermo Pal Autosampler System interfaced with a TSQ Quantum Ultra Mass Spectrometer, all obtained from Thermo Fisher Scientific (Waltham, MA, USA). A noncompartmental pharmacokinetic analysis (NCA) was performed on individual concentration-time data using a linear trapezoidal, linear/log interpolation calculation method with uniform weighting. The software program utilized for this analysis was Phoenix 64 WinNonlin Version 6.3 (Pharsight Corp., St. Louis, MO, USA). Study sample (n = 9) concentrations that were above the lower limit of quantitation (LLOQ) of the assay (62.5 ng/mL) following dose administration (Day 1: pre-dose and 1, 3, 5, 7 and 24 h; Day 19: pre-dose and 1, 3, 5, and 7 h) were used in the NCA.
All WHV carrier woodchucks were randomly divided into three groups such as placebo, low dose (2.5 mg/kg/day), and high dose (5.0 mg/kg/day) groups (n = 5 animals/group) in a long-term efficacy study based on clinical and preclinical studies. Also, a compartmental pharmacokinetic (PK) model was used to select the two lowest doses that can achieve exposure sufficient to inhibit pharmacodynamic targets. Experimental woodchucks were treated with placebo, 2.5 mg/kg, or 5.0 mg/kg sorafenib once daily with a 5 days on and 2 days off schedule. Animals were dosed orally until tumor development. Another experiment was performed with the low (2.5 mg/kg/day) and high (5.0 mg/kg/day) dose groups (n = 3 animals/group) to see the efficacy of short-term (90 days treatment) usage of sorafenib. The primary endpoint of the in vivo study was disease free survival (DFS), and DFS was measured from the date of randomization until the date of any liver tumor detection. The secondary endpoint was tumor size over 2 cm, which was measured from the date of first tumor detection. All experimental protocols were approved by IACUC.

PD-1 = experiment: PD-1, CD8 and CD25 expression on T cells by imaging flow cytometry; type: cell-based, human
Protocol: PBMCs were allowed to ‘recover’ in AIM-V medium (Thermo Fisher Scientific) at 37 °C, 5% CO2 in a humidified atmosphere overnight. 2 × 10^6 cells were treated with 0–10 µM sorafenib for the durations specified in the results section. If the experimental conditions required T cell stimulation, samples were co-treated (stimulated) with 1 µg/mL anti-CD3 and 1 µg/mL anti-CD28 for 2 h. Following treatment, PBMCs were placed on ice to stop drug action and immunophenotyped for CD4, CD8, CD25, and PD-1 (CD279). NFAT1 was detected by indirect labeling. Antibodies were diluted in permeabilization wash buffer (PWB) consisting of 0.1% Triton-X-100 in FCM Buffer (1× phosphate buffered saline (PBS) + 0.5%BSA). The primary Rabbit polyclonal NFAT1 antibody was diluted 1:50 in PWB. Following this, 1:200 dilution of secondary AF647 conjugated F(ab’)2 fragment donkey anti rabbit IgG antibody (Jackson ImmunoResearch Laboratories Inc., West Grove, PA, USA) was added. Just prior to data acquisition on the ImageStream, DAPI was added to all samples (0.5 µg/mL final concentration), to stain the nucleus.
Imaging flow cytometry acquisition, compensation, and analysis was performed on an imaging flow cytometer (ImagestreamX Mk-II; Amnis, part of MilliporeSigma, Seattle, WA, USA) as described previously. Following compensation for spectral overlap, image analysis was performed with IDEAS® software (Amnis, Seattle, WA, USA). To assess nuclear NFAT1 translocation, the corresponding nuclear image and NFAT1 image of each cell was compared and a Similarity Score (SS) was assigned for individual cells using published methods (Figure S3).

[2] = 2.5 mg/kg, oral 2.5 mg/kg, Day 1
[3] = 2.5 mg/kg, oral 2.5 mg/kg, Day 19
[4] = 5 mg/kg, oral 5.0 mg/kg, Day 19

CNC(=O)c1cc(Oc2ccc(NC(=O)Nc3ccc(Cl)c(C(F)(F)F)c3)cc2)ccn1 [sorafenib, Sorafenib]
MLR response (T cell proliferation) (human T cells): significant decrease
MLR response (T cell proliferation) (woodchuck T cells): inhibition of the woodchuck MLR response
Cmax/D of high dose group relative to low dose group ([1]; 5.0 vs 2.5 mg/kg, Day 1): ~ 8 times
Cmax/D of high dose group compared with low dose group ([1]; 5.0 vs 2.5 mg/kg, Day 19): the same
AUC ([1]; 2.5 mg/kg, oral 2.5 mg/kg, Day 1, read-out: AUC1–7 h, Geo Mean (%CV)): 588 ng·h/mL
AUC ([1]; 2.5 mg/kg, oral 2.5 mg/kg, Day 1, read-out: AUCAll, Geo Mean (%CV)): 2600 ng·h/mL
Cmax [1, 2]: 136 ng/mL
Tmax [1, 2]: 5.92 h
AUC ([1]; 2.5 mg/kg, oral 2.5 mg/kg, Day 19, read-out: AUC1–7 h, Geo Mean (%CV)): 26800 ng·h/mL
AUC ([1]; 2.5 mg/kg, oral 2.5 mg/kg, Day 19, read-out: AUCAll, Geo Mean (%CV)): 30300 ng·h/mL
Cmax [1, 3]: 4970 ng/mL
Tmax [1, 3]: 4.22 h
AUC ([1]; 5 mg/kg, oral 5.0 mg/kg, Day 1, read-out: AUC1–7 h, Geo Mean (%CV)): 5960 ng·h/mL
AUC ([1]; 5 mg/kg, oral 5.0 mg/kg, Day 1, read-out: AUCAll, Geo Mean (%CV)): 21000 ng·h/mL
Cmax ([1]; 5 mg/kg, oral 5.0 mg/kg, Day 1): 1170 ng/mL
Tmax ([1]; 5 mg/kg, oral 5.0 mg/kg, Day 1): 3.98 h
AUC ([1]; 5 mg/kg, oral 5.0 mg/kg, Day 19, read-out: AUC1–7 h, Geo Mean (%CV)): 39100 ng·h/mL
Cmax [1, 4]: 7380 ng/mL
Tmax [1, 4]: 3.98 h
Cmax/D, Geo Mean (%CV) ([1]; oral 2.5 mg/kg, Day 1): 2, 54.4 (3.41) (ng/mL)/(mg/kg)
Cmax/D, Geo Mean (%CV) ([1]; oral 2.5 mg/kg, Day 19): 3, 1990 (19.8) (ng/mL)/(mg/kg)
Cmax/D, Geo Mean (%CV) ([1]; oral 5.0 mg/kg, Day 1): 3, 433 (75.8) (ng/mL)/(mg/kg)
Cmax/D, Geo Mean (%CV) ([1]; oral 5.0 mg/kg, Day 19): 3, 2000 (54.5) (ng/mL)/(mg/kg)
proportion of CD4+CD25bright T cells (PD-1; dose-dependent manner, % of total CD4+ cells): decrease
CD8 expression in PD-1+ cells (PD-1; high dose (10 µM), PD-1+ T cells): decreased
NFAT1 activation and decreased expression of CD8 in PD-1 negative T cells (PD-1; high dose (10 µM), PD-1 negative T cells): not observed
proportion of PD-1-expressing CD8+ and CD4+ T cells (PD-1; high dose (10 µM), without exogenous stimulatory factors): increased

Source: publication PMC6562672, “Dose-Dependent Sorafenib-Induced Immunosuppression Is Associated with Aberrant NFAT Activation and Expression of PD-1 in T Cells” (Cancers, 2019)
